Holding throughout (format): biochemical
For one assay, the target named is T1, JAK3 (Homo sapiens, UniProt P52333).
T1 sequence (P52333 1-1124): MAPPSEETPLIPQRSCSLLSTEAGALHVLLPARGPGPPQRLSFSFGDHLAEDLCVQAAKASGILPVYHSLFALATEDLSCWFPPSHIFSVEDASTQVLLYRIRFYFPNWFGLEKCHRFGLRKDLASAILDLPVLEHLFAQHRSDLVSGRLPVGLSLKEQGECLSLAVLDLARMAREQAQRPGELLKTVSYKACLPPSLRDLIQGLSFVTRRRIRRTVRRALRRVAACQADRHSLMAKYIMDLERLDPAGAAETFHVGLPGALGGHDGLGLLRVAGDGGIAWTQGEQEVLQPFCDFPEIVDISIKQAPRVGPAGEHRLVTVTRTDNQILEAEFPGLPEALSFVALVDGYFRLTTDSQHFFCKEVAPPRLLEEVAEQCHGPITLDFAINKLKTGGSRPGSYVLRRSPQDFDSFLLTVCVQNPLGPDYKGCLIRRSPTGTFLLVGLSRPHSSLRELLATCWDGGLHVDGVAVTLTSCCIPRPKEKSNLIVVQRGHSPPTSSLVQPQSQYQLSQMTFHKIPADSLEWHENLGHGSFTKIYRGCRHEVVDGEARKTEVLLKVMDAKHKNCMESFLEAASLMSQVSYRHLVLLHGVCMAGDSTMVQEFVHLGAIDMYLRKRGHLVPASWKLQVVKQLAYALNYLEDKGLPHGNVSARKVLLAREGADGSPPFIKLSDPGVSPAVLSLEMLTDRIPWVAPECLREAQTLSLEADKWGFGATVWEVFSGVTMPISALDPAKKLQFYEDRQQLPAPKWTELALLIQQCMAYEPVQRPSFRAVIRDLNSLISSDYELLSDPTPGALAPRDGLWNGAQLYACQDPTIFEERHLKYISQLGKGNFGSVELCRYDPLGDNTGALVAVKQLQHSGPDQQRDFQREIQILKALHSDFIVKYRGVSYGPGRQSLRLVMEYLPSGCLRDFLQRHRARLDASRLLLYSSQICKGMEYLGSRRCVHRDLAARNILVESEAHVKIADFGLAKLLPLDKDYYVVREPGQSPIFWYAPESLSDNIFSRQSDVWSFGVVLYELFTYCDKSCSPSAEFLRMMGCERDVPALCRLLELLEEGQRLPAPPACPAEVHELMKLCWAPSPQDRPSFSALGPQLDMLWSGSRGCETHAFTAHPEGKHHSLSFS
As to the kind of experiment: Inhibition of a panel of kinases, in vitro HotSpot kinase assay: JAK3. The note with it: D-compounds panel data; 1 μM ATP; read-out: IC50 JAK3.

A further assay concerns the target EGFR (Homo sapiens, UniProt P00533). As to the kind of experiment: Inhibition of a panel of kinases, in vitro HotSpot kinase assay: EGFR. The note with it: D-compounds panel data; 1 μM ATP. Here is the method: (§1) The degree of inhibition of a panel of kinases is determined using the in vitro HotSpot kinase assay (purified enzymes, ^33P-ATP, an appropriate substrate and 1 μM ATP).

The next assay concerns the target SRC (Homo sapiens, UniProt P12931). As to the kind of experiment: Inhibition of a panel of kinases, in vitro HotSpot kinase assay: SRC. To be noted: D-compounds panel data; 1 μM ATP. Here is the method:
as §1

The target of the next assay is T2, BTK-WT (Homo sapiens, UniProt Q06187).
T2 construct: purified from insect cells as a full-length construct containing an N-terminal 6X-His tag; His6 (N); made in house; host or cells: insect cells (baculovirus Sf21 in Method B)
As to the kind of experiment: Btk in vitro inhibitory activity (one of Method A TR-FRET, Method B electrophoretic mobility shift, Method C radiometric filter binding). To be noted: D-compounds panel data; read-out: IC50 BTK-WT.

T2 sequence (Q06187 whole entry): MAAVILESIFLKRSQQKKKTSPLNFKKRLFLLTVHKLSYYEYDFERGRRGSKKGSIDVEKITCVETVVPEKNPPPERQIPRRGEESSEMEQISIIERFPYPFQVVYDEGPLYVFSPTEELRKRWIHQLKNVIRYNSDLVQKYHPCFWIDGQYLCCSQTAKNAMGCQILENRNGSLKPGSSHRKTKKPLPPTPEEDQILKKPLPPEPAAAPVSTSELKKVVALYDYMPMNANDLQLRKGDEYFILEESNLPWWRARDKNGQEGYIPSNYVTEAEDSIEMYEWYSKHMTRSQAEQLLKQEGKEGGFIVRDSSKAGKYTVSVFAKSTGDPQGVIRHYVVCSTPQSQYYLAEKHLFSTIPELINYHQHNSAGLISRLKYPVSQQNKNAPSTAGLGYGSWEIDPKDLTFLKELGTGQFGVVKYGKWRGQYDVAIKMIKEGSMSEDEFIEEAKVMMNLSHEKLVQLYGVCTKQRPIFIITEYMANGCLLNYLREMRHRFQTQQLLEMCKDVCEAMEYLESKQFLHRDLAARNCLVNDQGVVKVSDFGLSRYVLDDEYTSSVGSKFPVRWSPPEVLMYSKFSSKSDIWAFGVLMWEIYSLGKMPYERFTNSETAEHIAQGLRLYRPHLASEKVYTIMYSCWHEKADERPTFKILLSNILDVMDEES
SRC, sequence (P12931 whole entry): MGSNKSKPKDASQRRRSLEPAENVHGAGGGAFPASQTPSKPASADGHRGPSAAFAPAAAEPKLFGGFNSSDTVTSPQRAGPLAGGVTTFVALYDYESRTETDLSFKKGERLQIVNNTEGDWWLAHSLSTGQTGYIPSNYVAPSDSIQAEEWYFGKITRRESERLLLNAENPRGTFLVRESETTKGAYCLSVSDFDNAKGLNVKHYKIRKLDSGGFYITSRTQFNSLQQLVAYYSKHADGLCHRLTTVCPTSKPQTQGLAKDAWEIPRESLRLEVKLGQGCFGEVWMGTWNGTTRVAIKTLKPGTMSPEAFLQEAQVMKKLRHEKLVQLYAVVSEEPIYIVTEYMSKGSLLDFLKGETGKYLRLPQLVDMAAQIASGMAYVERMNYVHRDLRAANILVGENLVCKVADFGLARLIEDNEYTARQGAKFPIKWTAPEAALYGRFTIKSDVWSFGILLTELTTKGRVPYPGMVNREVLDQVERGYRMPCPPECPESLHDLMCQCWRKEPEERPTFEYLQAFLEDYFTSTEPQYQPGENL
EGFR, sequence (P00533 25-1210): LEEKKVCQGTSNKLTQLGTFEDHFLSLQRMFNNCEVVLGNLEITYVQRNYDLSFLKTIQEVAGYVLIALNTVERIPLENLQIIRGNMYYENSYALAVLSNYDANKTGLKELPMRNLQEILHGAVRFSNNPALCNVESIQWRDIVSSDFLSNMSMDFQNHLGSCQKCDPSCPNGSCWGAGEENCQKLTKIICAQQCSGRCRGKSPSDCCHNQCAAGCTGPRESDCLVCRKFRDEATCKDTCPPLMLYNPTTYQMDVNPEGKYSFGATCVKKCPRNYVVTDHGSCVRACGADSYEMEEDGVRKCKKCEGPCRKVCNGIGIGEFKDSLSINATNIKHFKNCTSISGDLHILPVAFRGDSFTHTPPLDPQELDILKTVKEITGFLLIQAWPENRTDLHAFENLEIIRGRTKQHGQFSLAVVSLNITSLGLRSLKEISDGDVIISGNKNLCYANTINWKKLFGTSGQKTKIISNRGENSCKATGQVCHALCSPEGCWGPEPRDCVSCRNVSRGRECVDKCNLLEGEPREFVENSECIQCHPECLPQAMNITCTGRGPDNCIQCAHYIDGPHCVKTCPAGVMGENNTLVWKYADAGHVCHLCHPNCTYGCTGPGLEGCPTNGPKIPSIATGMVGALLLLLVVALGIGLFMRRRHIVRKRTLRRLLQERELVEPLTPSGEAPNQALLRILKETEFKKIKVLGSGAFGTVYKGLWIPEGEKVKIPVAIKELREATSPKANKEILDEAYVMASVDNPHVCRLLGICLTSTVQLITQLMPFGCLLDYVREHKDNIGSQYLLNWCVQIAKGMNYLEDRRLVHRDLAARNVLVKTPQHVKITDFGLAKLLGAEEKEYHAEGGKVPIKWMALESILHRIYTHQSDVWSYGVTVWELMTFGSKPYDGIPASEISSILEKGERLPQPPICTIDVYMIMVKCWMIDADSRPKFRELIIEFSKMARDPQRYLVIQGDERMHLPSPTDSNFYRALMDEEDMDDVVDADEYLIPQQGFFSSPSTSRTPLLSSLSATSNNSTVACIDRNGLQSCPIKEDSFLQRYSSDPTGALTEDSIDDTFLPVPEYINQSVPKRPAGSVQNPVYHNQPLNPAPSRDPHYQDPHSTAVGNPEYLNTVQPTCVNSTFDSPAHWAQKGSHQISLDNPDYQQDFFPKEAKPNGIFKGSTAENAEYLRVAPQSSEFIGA

With `C[C@@H]1[C@H](NC(=O)c2ccc(C(F)(F)F)cc2)CCCN1c1cnc(C(N)=O)c(Nc2ccc(N3CCN(C)CC3)cc2)n1` [Example D-11, 5-[(2R,3R)-2-methyl-3-[4-(trifluoromethyl)benzamido]piperidin-1-yl]-3-{[4-(4-methylpiperazin-1-yl)phenyl]amino}pyrazine-2-carboxamide], the IC50 on JAK3 is 1 to 10 µM; on EGFR, 100 to 1000 nM; against SRC, 10 to 100 nM; at BTK-WT, not above 10 nM.
Taken in the same sequence, the figures for `C[C@@H]1[C@H](NC(=O)c2ccc(C3CC3)cc2F)CCCN1c1cnc(C(N)=O)c(Nc2cnn(C)c2)c1` [Example D-117, 5-[(2R,3R)-3-(4-cyclopropyl-2-fluorobenzamido)-2-methylpiperidin-1-yl]-3-[(1-methyl-1H-pyrazol-4-yl)amino]pyridine-2-carboxamide] were 1 to 10 µM, 1000 to 10000 nM, 100 to 1000 nM and 10 to 100 nM.
For the molecule `Cc1cc(Nc2nc(N3CCC[C@@H](n4ccc5cc(C6CC6)ccc5c4=O)C3)cnc2C(N)=O)sn1` [Example D-166, 5-[(3R)-3-(6-cyclopropyl-1-oxo-1,2-dihydroisoquinolin-2-yl)piperidin-1-yl]-3-[(3-methyl-1,2-thiazol-5-yl)amino]pyrazine-2-carboxamide], the IC50 on JAK3 is more than 10 µM; on EGFR, more than 10000 nM; at SRC it was more than 10000 nM; on BTK-WT, not above 10 nM.
Consider `C[C@@H]1CC[C@@H](NC(=O)c2ccc(C3CC3)cc2)CN1c1cnc(C(N)=O)c(Nc2cnn(C)c2)n1` [Example D-143, 5-[(2R,5R)-5-(4-cyclopropylbenzamido)-2-methylpiperidin-1-yl]-3-[(1-methyl-1H-pyrazol-4-yl)amino]pyrazine-2-carboxamide], for which the IC50 at JAK3 is more than 10 µM; at EGFR it was 1000 to 10000 nM; on SRC, 1000 to 10000 nM; at BTK-WT, 10 to 100 nM.
For `C[C@@H]1[C@H](NC(=O)N(C)C)CCCN1c1cnc(C(N)=O)c(Nc2cnn(C)c2)n1` [Example D-128, 5-[(2R,3R)-3-[(dimethylcarbamoyl)amino]-2-methylpiperidin-1-yl]-3-[(1-methyl-1H-pyrazol-4-yl)amino]pyrazine-2-carboxamide], the IC50 at JAK3 is 1 to 10 µM; at EGFR, 1000 to 10000 nM; on SRC, 100 to 1000 nM; at BTK-WT it was not above 10 nM.
Take `CN1CCN(c2ccc(Nc3nc(N4CCC[C@@H](n5ccc6cc(C7CC7)ccc6c5=O)C4)cnc3C(N)=O)cc2)CC1` [Example D-165, 5-[(3R)-3-(6-cyclopropyl-1-oxo-1,2-dihydroisoquinolin-2-yl)piperidin-1-yl]-3-{[4-(4-methylpiperazin-1-yl)phenyl]amino}pyrazine-2-carboxamide]: the IC50 at JAK3 is 1 to 10 µM; against EGFR it was more than 10000 nM; against SRC, 100 to 1000 nM; on BTK-WT, not above 10 nM.
The matching figures for `Cc1ccc(-c2cnc([C@@H]3CCCN(c4cnc(C(N)=O)c(Nc5cc(C)ns5)n4)[C@@H]3C)[nH]2)cc1` [Example D-131, 3-[(3-methyl-1,2-thiazol-5-yl)amino]-5-[(2R,3R)-2-methyl-3-[5-(4-methylphenyl)-1H-imidazol-2-yl]piperidin-1-yl]pyrazine-2-carboxamide]: 0.1 to 1 µM, 100 to 1000 nM, 100 to 1000 nM and 10 to 100 nM.
Taken in the same sequence, the figures for `C[C@H]1CC[C@H](NC(=O)c2ccc(C3CC3)cc2)CN1c1cnc(C(N)=O)c(Nc2cnn(C)c2)n1` [Example D-144, 5-[(2S,5S)-5-(4-cyclopropylbenzamido)-2-methylpiperidin-1-yl]-3-[(1-methyl-1H-pyrazol-4-yl)amino]pyrazine-2-carboxamide] were more than 10 µM, more than 10000 nM, 1000 to 10000 nM and 100 to 1000 nM.
Taken in the same sequence, the figures for `C[C@@H]1[C@H](NC(=O)c2ccc(C3CC3)cc2F)CCCN1c1cnc(C(N)=O)c(Nc2ccc(S(=O)(=O)N3CCN(C)CC3)cc2)n1` [Example D-130, 5-[(2R,3R)-3-(4-cyclopropyl-2-fluorobenzamido)-2-methylpiperidin-1-yl]-3-({4-[(4-methylpiperazin-1-yl)sulfonyl]phenyl}amino)pyrazine-2-carboxamide] were more than 10 µM, 1000 to 10000 nM, 100 to 1000 nM and not above 10 nM.
For `C[C@H]1CC[C@@H](NC(=O)N(C)C)CN1c1cnc(C(N)=O)c(Nc2cnn(C)c2)n1` [Example D-152, 5-[(2S,5R)-5-[(dimethylcarbamoyl)amino]-2-methylpiperidin-1-yl]-3-[(1-methyl-1H-pyrazol-4-yl)amino]pyrazine-2-carboxamide], the half-maximal inhibitory concentration (IC50) fell in the range of 1 to 10 µM at JAK3, 1000 to 10000 nM against EGFR, 100 to 1000 nM at SRC and 10 to 100 nM on BTK-WT.
Taken in the same sequence, the figures for `C[C@@H]1[C@H](NC(=O)c2ccc(C3CC3)cc2F)CCCN1c1cnc(C(N)=O)c(Nc2ccc(CN3CCN(C)CC3)cc2)c1` [Example D-125, 5-[(2R,3R)-3-(4-cyclopropyl-2-fluorobenzamido)-2-methylpiperidin-1-yl]-3-({4-[(4-methylpiperazin-1-yl)methyl]phenyl}amino)pyridine-2-carboxamide] were 1 to 10 µM, more than 10000 nM, 1000 to 10000 nM and not above 10 nM.
The matching figures for `Cn1cc(Nc2nc(N3CCCC4(C3)CN(c3ccc(C5CC5)cc3)C(=O)O4)cnc2C(N)=O)cn1` [Example D-147, 5-[3-(4-cyclopropylphenyl)-2-oxo-1-oxa-3,7-diazaspiro[4.5]decan-7-yl]-3-[(1-methyl-1H-pyrazol-4-yl)amino]pyrazine-2-carboxamide]: 1 to 10 µM, 1000 to 10000 nM, 100 to 1000 nM and 10 to 100 nM.
Taken in the same sequence, the figures for `C[C@@H]1[C@H](NC(=O)c2ccc(C3CC3)cc2F)CCCN1c1cnc(C(N)=O)c(Nc2ccc(S(=O)(=O)N3CCCC3)cc2)n1` [Example D-139, 5-[(2R,3R)-3-(4-cyclopropyl-2-fluorobenzamido)-2-methylpiperidin-1-yl]-3-{[4-(pyrrolidine-1-sulfonyl)phenyl]amino}pyrazine-2-carboxamide] were more than 10 µM, 1000 to 10000 nM, more than 10000 nM and not above 10 nM.
Turning to `C[C@@H]1[C@H](NC(=O)c2ccc(C3CC3)cc2F)CCCN1c1cnc(C(N)=O)c(Nc2ccc(N3CCN(C)CC3)cn2)n1` [Example D-8, 5-[(2R,3R)-3-(4-cyclopropyl-2-fluorobenzamido)-2-methylpiperidin-1-yl]-3-{[5-(4-methylpiperazin-1-yl)pyridin-2-yl]amino}pyrazine-2-carboxamide], the IC50 at JAK3 is more than 10 µM; on EGFR, more than 10000 nM; against SRC, more than 10000 nM; at BTK-WT, 10 to 100 nM.
On to `C[C@@H]1[C@H](NC(=O)c2ccc(C3CC3)cc2)CCCN1c1cnc(C(N)=O)c(Nc2ccc(OC3C[C@H]4CC[C@@H](C3)N4C)cc2)n1` (stereo partly drawn) [Example D-104, 5-[(2R,3R)-3-(4-cyclopropylbenzamido)-2-methylpiperidin-1-yl]-3-[(4-{[(1R,5S)-8-methyl-8-azabicyclo[3.2.1]octan-3-yl]oxy}phenyl)amino]pyrazine-2-carboxamide], for which the IC50 at JAK3 is 0.1 to 1 µM; against EGFR it was 100 to 1000 nM; against SRC, 10 to 100 nM; at BTK-WT, not above 10 nM.
Turning to `C[C@@H]1[C@H](NC(=O)N(C)C)CCCN1c1cnc(C(N)=O)c(Nc2cc(CN3CCOCC3)ns2)n1` [Example D-118, 5-[(2R,3R)-3-[(dimethylcarbamoyl)amino]-2-methylpiperidin-1-yl]-3-{[3-(morpholin-4-ylmethyl)-1,2-thiazol-5-yl]amino}pyrazine-2-carboxamide], the concentration for half-maximal inhibition (IC50) on JAK3 was 1 to 10 µM; at EGFR it was 1000 to 10000 nM; against SRC, 100 to 1000 nM; at BTK-WT, not above 10 nM.

Source of the values: US20210070748A1, “INHIBITORS OF BRUTONS TYROSINE KINASE” (Pharmacyclics LLC, priority 2015, published 2021).
